Data set [1] is described as follows: Caco-2 Permeability Assay. Type of data set: in vitro ADME, human. The conditions noted are these: human. Put shortly:
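Bidirectional transport at 37 °C for 90 min, 10 μM donor concentration, with or without Pgp inhibitor, across 21-day Caco-2 monolayers with TEER >600 […] in HEPES-buffered HBSS, pH 7.4. LC-MS/MS of donor and receiver samples gives Papp, B→A/A→B efflux ratio and mass recovery.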
(Caco-2 monolayers are a common model of the intestinal barrier.)

The nature of a further data set: Plasma Stability. Type of data set: in vitro ADME, human. The method, boiled down: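 Parent compound quantified by LC-MS/MS after acetonitrile precipitation, reported as percent of control remaining (triplicate). Incubation: 1 hour, 37° C, fresh human plasma, compound at 1 μM.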
Data set [2] can be described thus: Stability in Simulated Gastric Fluid (SGF). Type of data set: in vitro ADME. Further details: key: % parent compound remaining relative to 0-minute sample. The method, boiled down: (§1)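 LC-MS/MS read-out of intact compound (2 μg/mL final) over 60 minutes at 37° C; gastric medium pH 1.2 with pepsin, intestinal medium pH 6.8 with pancreatin. Half-life from ln(% remaining) against time.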

Data set [3] is described as follows: Stability in Simulated Intestinal Fluid (SIF). Further details: key: % parent compound remaining relative to 0-minute sample. Format: in vitro ADME. The method, boiled down:
as §1

[4] abbreviates: Caco-2, pH 7.4, Caco-2 monolayer, the 15th table.
Setting [5] is: % remaining at 1 h in human plasma, the 15th table.
Setting [6] is: % remaining at 1 h in simulated gastric fluid, the 15th table.
Setting [7] is: % remaining at 1 h in simulated intestinal fluid, the 15th table.
Setting [8] is: bare number, unit or time not given, the 15th table Examples 204-207.
Where [9] appears, read: Caco-2, pH 7.4, donor 10 μM, 90 minutes, 37° C., direction not given.
The mark [10] stands for this setting: % remaining at 1 h, human plasma, 1 μM, 37° C.
Where [11] appears, read: % remaining at 1 h, SGF with pepsin pH 1.2, 2 μg/mL, 37° C.
[12] abbreviates: % remaining at 1 h, SIF with pancreatin pH 6.8, 2 μg/mL, 37° C.
Setting [13] is: Caco-2, pH 7.4, Caco-2 monolayer, the 17th table.
The mark [14] stands for this setting: % remaining at 1 h in human plasma, the 17th table.
The mark [15] stands for this setting: % remaining at 1 h in simulated gastric fluid, the 17th table.
[16] abbreviates: % remaining at 1 h in simulated intestinal fluid, the 17th table.

In general, Papp refers to a coefficient for how fast a substance crosses the barrier. Regarding `CC(C)NC(=O)OCSc1nc(=O)c2c(ccn2C(=O)NC(C)C)n1CCOC(C)C` [Example 195], in data set [1] (setting [4]), the apparent permeability (Papp) at 90 min, 10 µM was 30 ×10⁻⁶ cm/s. Also, in the data set “Plasma Stability” (setting [5]), the “human Plasma stability” value amounted to 97% remaining. The SGF in data set [2] (setting [6]) is on record as 100% remaining. Moreover, in data set [3] (setting [7]), the SIF is listed as 99% remaining.
Take `CC(C)NC(=O)OCSc1nc(=O)c2[nH]ccc2n1CCOC(C)C` [Example 196]: in data set [1] (setting [4]), the apparent permeability coefficient (Papp) at 90 min, 10 µM turned out to be 19.5 ×10⁻⁶ cm/s. The “human Plasma stability” value in the data set “Plasma Stability” (setting [5]) came to 99% remaining. Moreover, in data set [2] (setting [6]), the SGF is listed as 99% remaining. Besides, in data set [3] (setting [7]), the SIF is on record as 98% remaining.
With `COC(=O)OCSc1nc(=O)c2c(ccn2COC(=O)OC)n1CCOC(C)C` [Example 198], the Papp at 90 min, 10 µM in data set [1] (setting [4]) is 11.4 ×10⁻⁶ cm/s. In addition, the “human Plasma stability” value in the data set “Plasma Stability” (setting [5]) is on record as 0% remaining. In data set [2] (setting [6]), the SGF is listed as 79% remaining. Further, the SIF in data set [3] (setting [7]) is reported as 74% remaining.
In data set [1] (setting [4]), `COC(=O)OCSc1nc(=O)c2c(ccn2CSc2nc(=O)c3[nH]ccc3n2CCOC(C)C)n1CCOC(C)C` [Example 199] yielded a Papp at 90 min, 10 µM of 5.54 ×10⁻⁶ cm/s. Further, the “human Plasma stability” value in the data set “Plasma Stability” (setting [5]) stood at 46% remaining. The SGF in data set [2] (setting [6]) is on record as 47% remaining. In data set [3] (setting [7]), the SIF was 79% remaining.
`COC(=O)OCSc1nc(=O)c2[nH]ccc2n1CCOC(C)C` [Example 200] came in with a Papp at 90 min, 10 µM in data set [1] (setting [4]) of 9.76 ×10⁻⁶ cm/s. Further, the “human Plasma stability” value in the data set “Plasma Stability” (setting [5]) stood at 2% remaining. Also, the SGF in data set [2] (setting [6]) was 100% remaining. Further, in data set [3] (setting [7]), the SIF is listed as 75% remaining.
In data set [1] (setting [4]), `CC(C)OCCn1c(SCOC(=O)OC(C)C)nc(=O)c2[nH]ccc21` [Example 203] came in with a Papp at 90 min, 10 µM of 13.4 ×10⁻⁶ cm/s. Besides, in the data set “Plasma Stability” (setting [5]), the “human Plasma stability” value came to 1% remaining. Moreover, the SGF in data set [2] (setting [6]) is recorded as 99% remaining. For the same compound, the SIF in data set [3] (setting [7]) is 63% remaining.
For `CCCCOC(=O)OCSc1nc(=O)c2[nH]ccc2n1CCOC(C)C` [Example 204], in data set [1] (setting [4]), the apparent permeability (Papp) at 90 min, 10 µM came out at 6.35 ×10⁻⁶ cm/s. Also, in “Plasma Stability” (setting [5]), the “human Plasma stability” value is 1% remaining. The SGF in data set [2] (setting [8]) is 85. For the same compound, the SIF in data set [3] (setting [8]) is listed as 2.
In the case of `CCCCCCCCOC(=O)OCSc1nc(=O)c2[nH]ccc2n1CCOC(C)C` [Example 206], the Papp at 90 min, 10 µM in data set [1] (setting [4]) stood at 0.138 ×10⁻⁶ cm/s. Moreover, the “human Plasma stability” value in the data set “Plasma Stability” (setting [5]) was 99% remaining. Also, in data set [2] (setting [8]), the SGF is 91. The SIF in data set [3] (setting [8]) is reported as 1.
With `CC(C)OCCn1c(SC(C)OC(=O)N(C(C)C)C(C)C)nc(=O)c2[nH]ccc21` (stereo not drawn) [Example 208, 1-({4-Oxo-1-[2-(propan-2-yloxy)ethyl]-1H,4H,5H-pyrrolo[3,2-d]pyrimidin-2-yl}sulfanyl)ethyl N,N-bis(propan-2-yl)carbamate], the Papp at 90 min, 10 µM in data set [1] (setting [9]) is 18.3 ×10⁻⁶ cm/s. The “human Plasma stability” value in “Plasma Stability” (setting [10]) was determined as 98%. In addition, the SGF in data set [2] (setting [11]) is recorded as 1%. For the same compound, the SIF in data set [3] (setting [12]) was 93%.
Consider `CC(C)OCCn1c(SCOC(=O)N(C)c2ccccc2)nc(=O)c2[nH]ccc21` [Example 209, ({4-oxo-1-[2-(propan-2-yloxy)ethyl]-1H,4H,5H-pyrrolo[3,2-d]pyrimidin-2-yl}sulfanyl)methyl N-methyl-N-phenylcarbamate], for which, in data set [1] (setting [9]), the Papp at 90 min, 10 µM was found to be 16.1 ×10⁻⁶ cm/s. For the same compound, the “human Plasma stability” value in “Plasma Stability” (setting [10]) was determined as 97% remaining. In addition, the SGF in data set [2] (setting [11]) was 99% remaining. In addition, the SIF in data set [3] (setting [12]) is reported as 99% remaining.
The compound `CC(C)OCCn1c(SCOC(=O)N(C)c2cccc(F)c2)nc(=O)c2[nH]ccc21` [Example 210, ({4-oxo-1-[2-(propan-2-yloxy)ethyl]-1H,4H,5H-pyrrolo[3,2-d]pyrimidin-2-yl}sulfanyl)methyl N-(3-fluorophenyl)-N-methylcarbamate] showed an apparent permeability coefficient (Papp) at 90 min, 10 µM in data set [1] (setting [9]) of 18.3 ×10⁻⁶ cm/s. Also, in the data set “Plasma Stability” (setting [10]), the “human Plasma stability” value is 97% remaining. In addition, the SGF in data set [2] (setting [11]) was 100% remaining. The SIF in data set [3] (setting [12]) is 97% remaining.
Regarding `CC(C)OCCn1c(SCOC(=O)N(C)c2ccc(F)cc2)nc(=O)c2[nH]ccc21` [Example 211, ({4-oxo-1-[2-(propan-2-yloxy)ethyl]-1H,4H,5H-pyrrolo[3,2-d]pyrimidin-2-yl}sulfanyl)methyl N-(4-fluorophenyl)-N-methylcarbamate], the Papp at 90 min, 10 µM in data set [1] (setting [9]) came to 20 ×10⁻⁶ cm/s. The “human Plasma stability” value in “Plasma Stability” (setting [10]) amounted to 99% remaining. Moreover, in data set [2] (setting [11]), the SGF was 100% remaining. Further, the SIF in data set [3] (setting [12]) was 96% remaining.
As to `CC(C)OCCn1c(SC(C)OC(=O)N(C)c2ncccc2COC(=O)CN(C)C(=O)OC(C)(C)C)nc(=O)c2[nH]ccc21` (stereo not drawn) [Example 212, (tert-Butoxycarbonyl-methyl-amino)-acetic acid 2-({1-[1-(2-isopropoxy-ethyl)-4-oxo-4,5-dihydro-1H-pyrrolo[3,2-d]pyrimidin-2-ylsulfanyl]-ethoxycarbonyl}-methyl-amino)-pyridin-3-ylmethyl ester], the Papp at 90 min, 10 µM in data set [1] (setting [9]) came to 0.87 ×10⁻⁶ cm/s. For the same compound, the “human Plasma stability” value in “Plasma Stability” (setting [10]) is recorded as 97%. Besides, the SGF in data set [2] (setting [11]) is 89%. Besides, the SIF in data set [3] (setting [12]) is given as 97%.
In data set [1] (setting [13]), `CCCCCCOC(=O)OCn1ccc2c1c(=O)nc(S)n2CCOC(C)C` [Example 213] came in with a Papp at 90 min, 10 µM of 3.03 ×10⁻⁶ cm/s. In addition, in the data set “Plasma Stability” (setting [14]), the “human Plasma stability” value was 44% remaining. Moreover, the SGF in data set [2] (setting [15]) was 76% remaining. Moreover, the SIF in data set [3] (setting [16]) is on record as 1% remaining.
Consider `CCCCCCOC(=O)OCSc1nc(=O)c2c(ccn2COC(=O)OCCCCCC)n1CCOC(C)C` [Example 214], for which, in data set [1] (setting [13]), the Papp at 90 min, 10 µM worked out at 1.63 ×10⁻⁶ cm/s. Besides, the “human Plasma stability” value in “Plasma Stability” (setting [14]) was 77% remaining. Besides, the SGF in data set [2] (setting [15]) is reported as 80% remaining. In addition, in data set [3] (setting [16]), the SIF was 2% remaining.
In data set [1] (setting [13]), `CCCCCCOC(=O)OCn1c(=O)c2c(ccn2COC(=O)OCCCCCC)n(CCOC(C)C)c1=S` [Example 215] returned an apparent permeability (Papp) at 90 min, 10 µM of 0.214 ×10⁻⁶ cm/s. Besides, the “human Plasma stability” value in the data set “Plasma Stability” (setting [14]) was 88% remaining. Moreover, the SGF in data set [2] (setting [15]) is recorded as 94% remaining. In addition, in data set [3] (setting [16]), the SIF is listed as 1% remaining.
In turn, `CCCCCOC(=O)OCn1ccc2c1c(=O)nc(S)n2CCOC(C)C` [Example 216] had a Papp at 90 min, 10 µM in data set [1] (setting [13]) of 4.59 ×10⁻⁶ cm/s. For the same compound, the “human Plasma stability” value in “Plasma Stability” (setting [14]) amounted to 1% remaining. Also, in data set [2] (setting [15]), the SGF was 91% remaining. The SIF in data set [3] (setting [16]) is listed as 1% remaining.
Regarding `CCCCCOC(=O)OCSc1nc(=O)c2c(ccn2COC(=O)OCCCCC)n1CCOC(C)C` [Example 217], in data set [1] (setting [13]), the Papp at 90 min, 10 µM is 5.32 ×10⁻⁶ cm/s. Further, the “human Plasma stability” value in “Plasma Stability” (setting [14]) stood at 5% remaining. Also, the SGF in data set [2] (setting [15]) is 88% remaining. Moreover, the SIF in data set [3] (setting [16]) is 1% remaining.
The corresponding values for `CCCCCOC(=O)OCn1c(=O)c2c(ccn2COC(=O)OCCCCC)n(CCOC(C)C)c1=S` [Example 218] are 0.65 ×10⁻⁶ cm/s, 74% remaining, 100% remaining and 2% remaining.
The matching figures for `CCCCCCCOC(=O)OCn1ccc2c1c(=O)nc(S)n2CCOC(C)C` [Example 219]: 0.847 ×10⁻⁶ cm/s, 21% remaining, 98% remaining and 23% remaining.
As for `CC(=O)OCc1ccccc1N(C)C(=O)OC(C)n1ccc2c1c(=O)nc(S)n2CCOC(C)C` (stereo not drawn) [Example 221], the apparent permeability coefficient (Papp) at 90 min, 10 µM in data set [1] (setting [13]) was found to be 2.54 ×10⁻⁶ cm/s. Moreover, the “human Plasma stability” value in “Plasma Stability” (setting [14]) is 94% remaining. Further, the SGF in data set [2] (setting [15]) was 67% remaining. In addition, the SIF in data set [3] (setting [16]) was 68% remaining.

The record behind these values is patent publication US20240067651A1 (Biohaven Therapeutics Ltd., priority 2019, published 2024).
